Laboratory results reported in patent US20170071976A1, “PHARMACEUTICAL SOLUTION HAVING ANTI-TUMOR EFFECT-ENHANCING AND TOXICITY-REDUCING EFFECT, AND PHARMACEUTICAL COMPOSITION COMPRISING SAME” (priority 2014, published 2017).
Like-named read-outs stand apart in the source and are kept apart here. Marks after values point to notes of the source that are not given here. Blank lines part the entries; values can stand above or below the molecule they belong to.

Tests used:
[1] = tested on: xenograft tumors from human colon cancer HCT-116 cells; assay: HCT-116 xenograft in nude mice, intravenous deuterium oxide in combination with 5-fluorouracil; format: in vivo, BALB/c nude mice
Method: Ltd. Cell lines: human colon cancer cells HCT-116 were provided by NANJING […] BIOTECH. CO., LTD. […] Bone marrow nucleated cells were isolated by a routine method, DNA was extracted from the cells, the OD value was measured in a UV-260 spectrometer as a representative of the DNA content, and inhibition of DNA synthesis by the test samples was observed. The test used 7 groups in total, with 8 animals per group. […] Tumor volume (TV) was calculated by the following equation: […] From the measurements, relative tumor volume (RTV) was calculated by the following equation: RTV=Vt/V0 Relative tumor growth ratio T/C (%) was calculated by the following equation: Criteria of efficacy evaluation: […] T/C %≦40% and statistically P<0.05, efficacious. Inhibition of tumor growth (%) was calculated by the following equation: Criteria of efficacy evaluation: […] The mean value was expressed in X±SD. Inter-group analysis was statistically performed with t test. The results were statistically analyzed using SPSS (Statistical Package for the Social Science) 17.0.

[2] = tested on: xenograft tumors from human breast cancer MCF-7 cells; assay: MCF-7 xenograft in nude mice, intravenous deuterium oxide in combination with gemcitabine; format: in vivo, BALB/c nude mice; conditions: Paclitaxel 8 mg/kg × 11, tail vein
Method: Ltd. Cell lines: human breast cancer MCF-7 cells were provided by NANJING […] BIOTECH. CO., LTD. […] Bone marrow nucleated cells were isolated by a routine method, DNA was extracted from the cells, the OD value was measured in a UV-260 spectrometer as a representative of the DNA content, and inhibition of DNA synthesis by the test samples was observed. The test used 7 groups in total, with 8 animals per group. […] Statistics: the same as Example 21.

[3] = tested on: xenograft tumors from human ovarian cancer SKOV3 cells; assay: SKOV3 xenograft in nude mice, intravenous deuterium oxide in combination with paclitaxel; format: in vivo, BALB/c nude mice; conditions: Paclitaxel 8 mg/kg × 11, tail vein
Excerpt: 3. […] 4. Statistics: the same as Example 21.

[4] = tested on: xenograft tumors from human lung cancer A549 cells; assay: A549 xenograft in nude mice, intravenous deuterium oxide in combination with gemcitabine; conditions: Paclitaxel 8 mg/kg × 11, tail vein; for Tumor weight: control 2.92 ± 0.27; for Inhibition (%): tumor weight
Method: (§1) Animal: 6 to 7 week-aged female BALB/c nude mice, each weighing 18 to 20 g, provided by Shanghai SLAC Laboratory Animal Co. Ltd.
Test drugs: gemcitabine (GEM) and the sodium chloride deuterium oxide solution prepared in Example 1.
(§2) Tumor cells were resuscitated and inoculated, and sterile sodium chloride physiological solution was added thereto to make a cell suspension which was subcutaneously inoculated into the upper right axillary fossa of animals. 5×10^6 tumor cells were inoculated into each animal.
The diameter of xenograft tumors in the nude mice was measured with a vernier caliper, and 10 days after inoculation, when tumors grew to 100 to 110 cm^3, the animals were randomized with 8 mice per group. Meanwhile drugs were administered by injection into tail vein, once every three days, for 21 successive days. By measuring the tumor diameter, the anti-tumor efficacy of test samples was dynamically observed. Meanwhile the body weight of animals was also recorded to observe the toxicity of the test samples. 21 days after administration, the nude mice were sacrificed, and tumors were harvested by surgery, weighed and photographed.
6) Test group 2: gemcitabine (10 mg/kg) diluted in the sodium chloride deuterium oxide solution (10 ml/kg). 7) Test group 3: gemcitabine (10 ml/kg) diluted in the sodium chloride deuterium oxide solution (20 ml/kg).

[5] = tested on: liver cancer H22 ascites tumor; assay: Liver cancer H22 ascites tumor mice, intraperitoneal retention lavage with deuterium oxide and cisplatin (room temperature or 42±1° C.); format: in vivo, Kunming mice; conditions: cisplatin 0.6 mg/kg + Ringer's solution
Method: Animal: 4 to 5 week-aged male Kunming mice, provided by Shanghai SIPPR-BK Laboratory Animal Co. Ltd. Cell lines: […] CO., LTD. […] Test drugs: cisplatin, and the Ringer's deuterium oxide solution as prepared in Example 6. Grouping and dosing: the mouse model was established 7 to 8 days after inoculation, and the mice were randomized with 18 animals/group. Cisplatin were dissolved in a 42±1° C. Ringer's deuterium oxide solution, and used to lavage the peritoneal cavity of the tumor-bearing mice. 1). Blank control group (normal Ringer's solution, 10 ml/kg, room temperature); 2). Normal chemo group (cisplatin 0.6 mg/kg+normal Ringer's solution, 10 ml/kg, room temperature); 3). […] Room temperature high-dose deuterium oxide+cisplatin group (Ringer's deuterium oxide solution, 40 ml/kg+cisplatin 0.6 mg/kg); 6). Hyperthermic low-dose deuterium oxide+cisplatin group (42±1° C. […] Hyperthermic mid-dose deuterium oxide+cisplatin group (42±1° C. […] Hyperthermic high-dose deuterium oxide+cisplatin group (42±1° C. Ringer's deuterium oxide solution, 40 ml/kg+cisplatin 0.6 mg/kg); […] The lavage was performed once another day for 5 successive times. […] 4. […] Statistics: the same as Example 18.

[6] = tested on: xenograft tumors from human bladder cancer 5637 cells; conditions: Thiotepa 0.2 mg/kg × 11, tail vein; for Inhibition (%): tumor weight
Excerpt: Inhibition of growth of xenograft tumors from human bladder cancer 5637 cells in nude mice by intravenous injection of deuterium oxide in combination with thiotepa
as §1
Cell lines: human bladder cancer 5637 cells were provided by NANJING KEYGEN BIOTECH. CO., LTD.
Test drugs: thiotepa and the sodium chloride deuterium oxide solution, prepared in Example 1.
as §2
The diameter of xenograft tumors in the nude mice was measured with a vernier caliper, and 10 days after inoculation, when tumors grew to 100 to 110 cm^3, the animals were randomized. Meanwhile drugs were administered by injection into tail vein, once every three days, for 21 successive days. The body weight of animals was also recorded to observe the toxicity of the test samples. 21 days after administration, the nude mice were sacrificed, and tumors were harvested by surgery, and weighed.
The test used 5 groups in total, with 5 animals per group.
1) Control group: sodium chloride physiological solution, 10 ml/kg; 2) Thiotepa positive control group: thiotepa (0.2 mg/kg) diluted in sodium chloride physiological solution; 3) Test group 1: thiotepa (0.2 mg/kg) diluted in the sodium chloride deuterium oxide solution (1 ml/kg); 4) Test group 2: thiotepa (0.2 mg/kg) diluted in the sodium chloride deuterium oxide solution (10 ml/kg); 5) Test group 3: thiotepa (0.2 mg/kg) diluted in the sodium chloride deuterium oxide solution (25 ml/kg).

[7] = tested on: sarcoma S180 (ascites type); assay: Sarcoma S180 (ascites type) mice, 42±1° C. intraperitoneal retention lavage with deuterium oxide, oxaliplatin and mitomycin; format: in vivo, Kunming mice; conditions: oxaliplatin 0.8 mg/kg + glucose injection 5 ml/kg
Method: Inhibition of sarcoma S180 (ascites type) in tumor-bearing mice by 42±1° C. hyperthermic intraperitoneal retention lavage using deuterium oxide in combination with oxaliplatin and using deuterium oxide in combination with oxaliplatin and mitomycin.
Cell lines: sarcoma S180 (ascites type) cell line was provided by NANJING KEYGEN BIOTECH. CO., LTD.
Modeling: 0.2 ml suspension of sarcoma S180 cells containing 1×10^7 cells/ml was inoculated into the peritoneal cavity of mice.
Test drugs: oxaliplatin, mitomycin, and the glucose deuterium oxide solution as prepared in Example 2.
Grouping and dosing: the mouse model was established 7 to 8 days after inoculation, and the mice were randomized with 12 animals/group.
Oxaliplatin and mitomycin were dissolved in a 42±1° C. glucose deuterium oxide solution, and used to lavage the peritoneal cavity of the tumor-bearing mice.
Blank control group (5% glucose injection, 5 ml/kg); 2). Chemo group (oxaliplatin 0.8 mg/kg+5% glucose injection, 5 ml/kg); 3). Low-dose deuterium oxide+oxaliplatin group (5% glucose deuterium oxide solution, 5 ml/kg+oxaliplatin 0.8 mg/kg); 4). Mid-dose deuterium oxide+oxaliplatin group (5% glucose deuterium oxide solution, 20 ml/kg+oxaliplatin 0.8 mg/kg); 5). High-dose deuterium oxide+oxaliplatin group (5% glucose deuterium oxide solution, 40 ml/kg+oxaliplatin 0.8 mg/kg); 6). Low-dose deuterium oxide+oxaliplatin+mitomycin group (42±1° C. 5% glucose deuterium oxide solution, 5 ml/kg+oxaliplatin 0.8 mg/kg+mitomycin 0.4 mg/kg); 7). […]
The peritoneal cavity was lavaged with the 42±1° C. glucose deuterium oxide solution in combination with the above composition, which were retained for 10 min in the peritoneal cavity after being introduced, which was repeated for 3 times. […] 24 hours after the administration of drugs was completed (on day 11), 4 mice from each group were sacrificed, the volume of ascitic fluid was measured, and bodies of the mice were dissected to observe the peritoneal organs and metastasis to lung. […]

Bone marrow DNA content (OD) ([1]; Paclitaxel 8 mg/kg × 11, tail vein, control 0.950 ± 0.2711): 0.841 ± 0.3014 OD | Bone marrow DNA content (OD) ([2]; control 0.931 ± 0.2011): 0.881 ± 0.2502 OD
Compound: CC(=O)O[C@H]1C(=O)[C@@]2(C)[C@H]([C@H](OC(=O)c3ccccc3)[C@]3(O)C[C@H](OC(=O)[C@H](O)[C@@H](NC(=O)c4ccccc4)c4ccccc4)C(C)=C1C3(C)C)[C@]1(OC(C)=O)CO[C@@H]1C[C@@H]2O [Paclitaxel, paclitaxel]
Body weight (g) Initial ([1]; Paclitaxel 8 mg/kg × 11, tail vein): 18.4 g | Tumor weight ([1]; Paclitaxel 8 mg/kg × 11, tail vein, control 2.92 ± 0.27): 0.94 ± 0.25 g | Body weight (g) End, given as change ([1]; Paclitaxel 8 mg/kg × 11, tail vein, control +0.4): -1.2 g | Body weight (g) Initial ([1]; Paclitaxel 8 mg/kg × 11, tail vein, listed as paclitaxel): 18.4 ± 0.5 g | body weight at end ([1]; high-dose paclitaxel positive control): 16.8 ± 0.9 g | Inhibition (%) ([1]; tumor weight, Paclitaxel 8 mg/kg × 11, tail vein): 67.80%* | Body weight (g) Initial [2]: 18.3 g | Tumor weight ([2]; control 4.07 ± 0.76): 1.59 ± 0.40 g | Body weight (g) End, given as change ([2]; control +3.3): +1.0 g | Inhibition (%) ([2]; tumor weight): 60.93%* | Tumor weight ([3]; control 3.22 ± 1.59): 2.07 ± 1.06 g | Body weight (g) End, given as change ([3]; control +4.0): +2.8 g | Inhibition (%) ([3]; tumor weight): 35.7% | Body weight (g) Initial [4]: 18.4 g | Tumor weight [4]: 0.94 ± 0.25 g | Tumor weight ([4]; listed as paclitaxel): 0.94 ± 0.25 g | Body weight (g) End, given as change ([4]; control +1.4): +0.9 g | Inhibition (%) [4]: 67.97* % | Inhibition (%) ([4]; listed as paclitaxel): 67.97%

Compound: N.N.[Cl][Pt][Cl] [cisplatin]
T/C(%) ([5]; room temperature, i.p. lavage x 5): 137.1% | MST ([5]; room temperature, i.p. lavage x 5, control 13.2 ± 1.9): 18.1 ± 3.2 days | Ascitic fluid ([5]; day 11, RT, control 14.85 ± 2.56): 7.30 ± 2.32 mL

Compound: S=P(N1CC1)(N1CC1)N1CC1 [Thiotepa, thiotepa]
Body weight (g) Initial [6]: 20.6 g | Tumor weight ([6]; control 2.87 ± 1.11): 1.75 ± 1.06 g | Body weight (g) End, given as change ([6]; control +3.1): +2.6 g | Inhibition (%) [6]: 39.0% | Inhibition (%) ([6]; listed as thiotepa): 39%

Compound: O=C1[O][Pt]2([NH][C@@H]3CCCC[C@H]3[NH]2)[O]C1=O [oxaliplatin]
Ascitic fluid ([7]; day 11, control 16.5 ± 4.3): 8.7 ± 1.9 mL | T/C(%) ([7]; i.p. lavage x 5): 177.6% | MST ([7]; i.p. lavage x 5, control 12.2 ± 3.0): 21.7 ± 2.8 days
